Calls of active or inactive are those of the source. No cut-off for these calls is given here. Non-standard residues stand in square brackets, D forms with d. Residues, ends and D or L forms follow the SMILES beside them. Orn = NCCC[C@H](N)C(=O)O
What was measured:
Acinetobacter baumannii [1] = assay: Antipersister-activity against Acinetobacter baumannii ATCC 19606 assessed as elimination of persister cells at 50 times MIC preincubated adherent persistent cells with colistin incubation for 24 hrs; type: functional
Staphylococcus aureus [2] = assay: Antibiofilm activity against Staphylococcus aureus CMCC 26003 assessed as biofilm eradication at 0.5 to 2 times MIC incubated for 24 hrs by crystal violet staining based analysis; type: functional
Acinetobacter baumannii [3] = assay: In vivo antibacterial activity against Acinetobacter baumannii ATCC19606 infected in BALB/c mouse assessed as reduction in bacterial load in kidney at 15 mg/kg, ip measured after 12 hrs; type: functional, organism-based
Staphylococcus aureus [4] = assay: Antimicrobial activity against Staphylococcus aureus CMCC 26003 assessed as fold increase in MIC incubated for 18 hrs in presence of CCCP; type: functional
Escherichia coli [5] = assay: Antimicrobial activity against Escherichia coli ATCC 25922 assessed as reduction in microbial growth incubated for 18 hrs by broth microdilution method; type: functional
Staphylococcus aureus [6] = assay: Antimicrobial activity against Staphylococcus aureus ATCC 43300 assessed as reduction in microbial growth incubated for 18 hrs by broth microdilution method; type: functional
Acinetobacter baumannii [7] = assay: In vivo antibacterial activity against Acinetobacter baumannii ATCC19606 infected in BALB/c mouse assessed as reduction in bacterial load in kidney at 15 mg/kg, ip measured after 3 hrs; type: functional, organism-based
Acinetobacter baumannii [8] = assay: In vivo antibacterial activity against Acinetobacter baumannii ATCC19606 infected in BALB/c mouse assessed as reduction in bacterial load in lung at 15 mg/kg, ip measured after 3 hrs; type: functional, organism-based
Acinetobacter baumannii [9] = assay: In vivo antibacterial activity against Acinetobacter baumannii ATCC19606 infected in BALB/c mouse assessed as reduction in bacterial load in lung at 15 mg/kg, ip measured after 12 hrs; type: functional, organism-based
Pseudomonas aeruginosa = assay: Antimicrobial activity against Pseudomonas aeruginosa CMCC10104 assessed as reduction in microbial growth incubated for 18 hrs by broth microdilution method; type: functional
Peritoneal macrophage [10] = assay: Antiinflammatory activity in mouse Peritoneal macrophage cells assessed as inhibition of LPS-induced TNF-alpha production at 20 microg/ml incubated for 6 hrs by ELISA analysis; type: functional, cell-based; details: dose 20.0 µg/ml
Staphylococcus aureus [11] = assay: Antibiofilm activity against Staphylococcus aureus CMCC 26003 assessed as biofilm eradication at 8 times MIC incubated for 24 hrs by crystal violet staining based analysis; type: functional
Escherichia coli [12] = assay: Antibacterial activity against Escherichia coli ATCC 25922 assessed as increase in intracellular ROS production at 1 times MIC by DCFH-DA staining based assay; type: functional, organism-based
[13] = Acute toxicity in BALB/c mouse assessed as mortality at 10 mg/kg, iv measured for 24 hrs; type: organism-based; details: in vivo, read-out: Activity
Staphylococcus aureus [14] = assay: Bactericidal activity against Staphylococcus aureus CMCC 26003 assessed as bacterial eradication incubated at 0.5 hrs in presence of thiourea; type: functional, organism-based
Salmonella enteritidis = assay: Antimicrobial activity against Salmonella enterica subsp. enterica serovar Enteritidis ATCC 14028 assessed as reduction in microbial growth incubated for 18 hrs by broth microdilution method; type: functional
[15] = Hemolytic activity at human Erythrocyte assessed as hemolysis at 100 microg/ml; type: toxicity, cell-based; details: erythrocytes, at 100 µg/mL, read-out: Activity
Clostridium perfringens = assay: Antimicrobial activity against Clostridium perfringens ATCC 13124 assessed as reduction in microbial growth incubated for 18 hrs by broth microdilution method; type: functional
Acinetobacter baumannii [16] = assay: Antibiofilm activity against Acinetobacter baumannii ATCC 19606 assessed as inhibition of biofilm formation at 0.5 times MIC incubated for 48 hrs by crystal violet staining based analysis; type: functional
[17] = Acute toxicity in BALB/c mouse assessed as effect on BUN level at 10 mg/kg, iv measured for 24 hrs; type: organism-based; details: in vivo
Staphylococcus aureus [18] = assay: Antimicrobial activity against Staphylococcus aureus 08032706 assessed as reduction in microbial growth incubated for 18 hrs by broth microdilution method; type: functional
Staphylococcus aureus [19] = assay: Antimicrobial activity against Staphylococcus aureus CMCC 26003 assessed as reduction in microbial growth incubated for 18 hrs by broth microdilution method; type: functional
Cell membrane = assay: Disruption of cell membrane integrity in Escherichia coli ATCC 25922 assessed as cell membrane damage at 5 times MIC measured after 30 mins by scanning electron microscopic analysis; type: subcellular
[20] = tested on: Staphylococcus epidermidis; assay: Antimicrobial activity against Staphylococcus epidermidis assessed as reduction in microbial growth incubated for 18 hrs by broth microdilution method; type: functional
Escherichia coli [21] = assay: Antibacterial activity against Escherichia coli ATCC 25922 assessed as increase in intracellular ROS production at 2 to 5 times MIC by DCFH-DA staining based assay; type: functional, organism-based
Staphylococcus aureus [22] = assay: Antibiofilm activity against Staphylococcus aureus CMCC 26003 assessed as inhibition of biofilm formation incubated for 48 hrs by crystal violet staining based analysis; type: functional, organism-based
Peritoneal macrophage [23] = assay: Antiinflammatory activity in mouse Peritoneal macrophage cells assessed as inhibition of LPS-induced IL-6 production at 20 microg/ml incubated for 6 hrs by ELISA analysis; type: functional, cell-based; details: dose 20.0 µg/ml
Escherichia coli [24] = assay: Antibacterial activity against Escherichia coli ATCC 25922 at 1 times MIC in presence of exogenous DNA; type: functional, organism-based
[25] = Acute toxicity in BALB/c mouse assessed as effect on ALT level at 10 mg/kg, iv measured for 24 hrs; type: organism-based; details: in vivo
Acinetobacter baumannii [26] = assay: Antibiofilm activity against Acinetobacter baumannii ATCC 19606 assessed as biofilm eradication incubated for 24 hrs by crystal violet staining based analysis; type: functional, organism-based
Staphylococcus aureus [27] = assay: Antibiofilm activity against Staphylococcus aureus CMCC 26003 assessed as reduction in biofilm formation at 0.5 times MIC incubated for 24 hrs by crystal violet staining based analysis; type: functional; design: scale not given: the % may be the effect or the level left
Staphylococcus aureus [28] = assay: Antibacterial activity against Staphylococcus aureus CMCC 26003 assessed as increase in intracellular ROS production incubated for 1 hr by DCFH-DA staining based assay; type: functional, organism-based
Escherichia coli [29] = assay: Drug resistance, ratio of MIC for Escherichia coli ATCC 25922 after 40 passages to MIC for Escherichia coli ATCC 25922 during first exposure; type: functional
[30] = Acute toxicity in BALB/c mouse assessed as mortality at 15 mg/kg, iv measured for 24 hrs; type: organism-based; details: in vivo, read-out: Activity
[31] = Acute toxicity in BALB/c mouse assessed as mortality at 20 mg/kg, iv measured for 24 hrs; type: organism-based; details: in vivo, read-out: Activity
Enterococcus faecalis = assay: Antimicrobial activity against Enterococcus faecalis ATCC 29217 assessed as reduction in microbial growth incubated for 18 hrs by broth microdilution method; type: functional
Acinetobacter baumannii [32] = assay: Antibiofilm activity against Acinetobacter baumannii ATCC 19606 assessed as inhibition of biofilm formation incubated for 48 hrs by crystal violet staining based analysis; type: functional, organism-based
Acinetobacter baumannii [33] = assay: Antimicrobial activity against Acinetobacter baumannii ATCC19606 assessed as reduction in microbial growth incubated for 18 hrs by broth microdilution method; type: functional
Staphylococcus aureus [34] = assay: Antipersister-activity against Staphylococcus aureus CMCC 26003 assessed as elimination of persister cells at 50 times MIC preincubated adherent persistent cells with colistin incubation for 24 hrs; type: functional
Acinetobacter baumannii [35] = assay: In vivo antibacterial activity against Acinetobacter baumannii ATCC19606 infected in BALB/c mouse assessed as reduction in bacterial load in liver at 15 mg/kg, ip measured after 12 hrs; type: functional, organism-based

For `CC[C@H](C)[C@H](NC(=O)[C@H](CCCN)NC(=O)[C@H](CO)NC(=O)[C@H](Cc1c[nH]cn1)NC(=O)[C@H](CCCN)NC(=O)[C@H](CC(C)C)NC(=O)[C@@H](NC(=O)[C@H](CCCN)NC(=O)CNC(=O)[C@H](CC(C)C)NC(=O)[C@H](CCC(N)=O)NC(=O)[C@H](CCCN)NC(=O)[C@H](CCCN)NC(=O)[C@@H](NC(=O)[C@H](CCCN)NC(=O)[C@H](CCCN)NC(=O)[C@@H](N)Cc1ccccc1)C(C)C)C(C)C)C(=O)N[C@H](C(=O)N[C@H](C(=O)NCC(=O)NCC(=O)N[C@@H](CCCN)C(=O)N[C@@H](CCSC)C(=O)N[C@@H](CCCN)C(=O)N[C@@H](Cc1ccccc1)C(=O)O)C(C)C)[C@@H](C)O` (H-F[Orn][Orn]V[Orn][Orn]QLG[Orn]VL[Orn]HS[Orn]ITVGG[Orn]M[Orn]F-OH), the Activity (Acinetobacter baumannii [1]) was 60%, the Activity (Staphylococcus aureus [2]) was 20% and the Activity (Acinetobacter baumannii [3]) was “Active”. For the same compound, the “fold change (FC)” value (Staphylococcus aureus [4]) was 32, the MIC (Escherichia coli [5]) was 9.38 µg/mL and the MIC (Staphylococcus aureus [6]) was > 100 µg/mL. The Activity (Acinetobacter baumannii [7]) was “Active”, the Activity (Acinetobacter baumannii [8]) was “Active” and the Activity (Acinetobacter baumannii [9]) was “Active”. The MIC (Pseudomonas aeruginosa) was 75 µg/mL, the Activity (Peritoneal macrophage [10]) was “Active” and the Activity (Staphylococcus aureus [11]) was 50%. The Activity (Escherichia coli [12]) was “Active”, the mortality at 24 h [13] was 0% and the Activity (Staphylococcus aureus [14]) was “Active”. The MIC (Salmonella enteritidis) was 37.5 µg/mL, the hemolysis at 100 microg/ml [15] was < 5% and the MIC (Clostridium perfringens) was 18.8 µg/mL. The “inhibition (INH)” value (Acinetobacter baumannii [16]) was 10%, the Activity [17] was “Non-toxic” and the MIC (Staphylococcus aureus [18]) was 37.5 µg/mL. For the same compound, the MIC (Staphylococcus aureus [19]) was 75 µg/mL, the Activity (Cell membrane) was “Active” and the MIC [20] was 18.8 µg/mL. For the same compound, the Activity (Escherichia coli [21]) was “Active”, the Activity (Staphylococcus aureus [22]) was “Active” and the Activity (Peritoneal macrophage [23]) was “Active”. For the same compound, the Activity (Escherichia coli [24]) was “Active”, the Activity [25] was “Non-toxic” and the Activity (Acinetobacter baumannii [26]) was “Active”. The Activity (Staphylococcus aureus [27]) was 20%, the Activity (Staphylococcus aureus [28]) was “Dose-dependent-effect” and the Ratio (Escherichia coli [29]) was 1. It also gave a mortality at 24 h [30] of 0%, a mortality at 24 h [31] of 0% and an MIC (Enterococcus faecalis) of 18.8 µg/mL. The Activity (Acinetobacter baumannii [32]) was “Active”, the MIC (Acinetobacter baumannii [33]) was 9.38 µg/mL and the Activity (Staphylococcus aureus [34]) was 50%. For the same compound, the Activity (Acinetobacter baumannii [35]) was “Active”.

— ChEMBL document CHEMBL6078680, “Improving the Stability and Anti-Infective Activity of Sea Turtle AMPs Using Multiple Structural Modification Strategies” (J Med Chem, 2024)
